Here are results for 10 molecules from ChEMBL document CHEMBL5291721, “A preclinical secondary pharmacology resource illuminates target-adverse drug reaction associations of marketed drugs” (Nat Commun, 2023).

In general, AC50 refers to the concentration giving half of the maximal activity seen. Read a high AC50 as weaker potency.

For assay [1], the target named is T1, Muscarinic acetylcholine receptor M2 (Homo sapiens, UniProt P08172).
T1 sequence (P08172 whole entry): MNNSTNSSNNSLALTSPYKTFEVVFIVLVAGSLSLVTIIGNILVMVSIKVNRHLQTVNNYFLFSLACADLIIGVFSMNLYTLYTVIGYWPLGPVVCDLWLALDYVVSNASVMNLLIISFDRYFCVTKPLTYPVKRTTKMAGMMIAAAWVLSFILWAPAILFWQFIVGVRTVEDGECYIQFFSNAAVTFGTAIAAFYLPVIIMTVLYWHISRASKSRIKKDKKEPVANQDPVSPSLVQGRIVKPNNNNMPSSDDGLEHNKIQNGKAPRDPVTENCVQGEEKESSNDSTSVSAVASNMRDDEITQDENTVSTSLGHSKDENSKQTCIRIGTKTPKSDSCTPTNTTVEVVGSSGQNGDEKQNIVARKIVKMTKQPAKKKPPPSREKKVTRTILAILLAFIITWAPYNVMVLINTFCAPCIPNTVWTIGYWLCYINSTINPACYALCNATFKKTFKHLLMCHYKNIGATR
Format: functional, cell-based.

The target of assay [2] is Sodium-dependent dopamine transporter (Homo sapiens, UniProt Q01959).
Assay [3] concerns the target Beta-2 adrenergic receptor (Homo sapiens, UniProt P07550).
The target in the next assay is T2, Progesterone receptor (Homo sapiens, UniProt P06401).
T2 sequence (P06401 whole entry): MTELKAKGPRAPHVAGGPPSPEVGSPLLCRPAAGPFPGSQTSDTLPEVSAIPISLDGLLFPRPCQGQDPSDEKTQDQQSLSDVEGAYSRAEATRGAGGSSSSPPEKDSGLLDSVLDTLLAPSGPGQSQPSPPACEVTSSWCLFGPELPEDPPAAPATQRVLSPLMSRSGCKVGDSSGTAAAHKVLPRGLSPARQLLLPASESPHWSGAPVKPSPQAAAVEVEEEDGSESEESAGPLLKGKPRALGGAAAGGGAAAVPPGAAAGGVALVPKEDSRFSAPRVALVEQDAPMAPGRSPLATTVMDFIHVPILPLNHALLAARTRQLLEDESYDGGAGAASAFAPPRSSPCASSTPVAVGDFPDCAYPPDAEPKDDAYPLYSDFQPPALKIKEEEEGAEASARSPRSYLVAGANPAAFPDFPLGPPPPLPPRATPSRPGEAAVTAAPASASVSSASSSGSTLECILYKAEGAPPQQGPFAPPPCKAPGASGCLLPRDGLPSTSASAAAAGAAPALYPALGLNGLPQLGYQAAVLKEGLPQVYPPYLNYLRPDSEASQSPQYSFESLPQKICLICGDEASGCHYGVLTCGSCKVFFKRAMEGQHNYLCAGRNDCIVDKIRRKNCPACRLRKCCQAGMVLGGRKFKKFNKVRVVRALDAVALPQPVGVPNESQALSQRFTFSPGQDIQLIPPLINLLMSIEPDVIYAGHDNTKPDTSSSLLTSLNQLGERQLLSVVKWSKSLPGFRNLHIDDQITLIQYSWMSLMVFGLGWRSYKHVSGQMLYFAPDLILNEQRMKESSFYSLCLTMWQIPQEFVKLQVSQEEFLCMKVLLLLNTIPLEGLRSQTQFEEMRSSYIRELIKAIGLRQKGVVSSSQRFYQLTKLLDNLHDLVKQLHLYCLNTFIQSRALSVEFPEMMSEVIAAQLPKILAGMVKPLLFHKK
In kind it is functional.

In assay [4] the target is T3, 5-hydroxytryptamine receptor 1A (Homo sapiens, UniProt P08908).
T3 sequence (P08908 whole entry): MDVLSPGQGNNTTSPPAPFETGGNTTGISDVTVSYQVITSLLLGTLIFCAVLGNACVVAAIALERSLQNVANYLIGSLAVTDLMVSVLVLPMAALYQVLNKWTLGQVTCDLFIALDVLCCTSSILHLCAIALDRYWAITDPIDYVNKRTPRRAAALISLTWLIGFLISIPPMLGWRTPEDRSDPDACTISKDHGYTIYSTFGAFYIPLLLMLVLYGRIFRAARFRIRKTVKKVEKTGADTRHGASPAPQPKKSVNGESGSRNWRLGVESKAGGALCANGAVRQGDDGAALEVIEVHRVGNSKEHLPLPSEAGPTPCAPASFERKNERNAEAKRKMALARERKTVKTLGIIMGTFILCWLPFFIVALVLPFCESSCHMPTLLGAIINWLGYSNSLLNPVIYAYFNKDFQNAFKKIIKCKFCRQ
Format: functional, cell-based.

The target in assay [5] is 5-hydroxytryptamine receptor 2B (Homo sapiens, UniProt P41595). Format: functional, cell-based.
The next assay deals with Motilin receptor (Homo sapiens, UniProt O43193).
For assay [6], the target named is T1, Muscarinic acetylcholine receptor M2. In kind it is functional, cell-based. This is another data set of the same source.
Assay [7] concerns the target T4, Equilibrative nucleoside transporter 1 (Homo sapiens, UniProt Q99808).
T4 sequence (Q99808 whole entry): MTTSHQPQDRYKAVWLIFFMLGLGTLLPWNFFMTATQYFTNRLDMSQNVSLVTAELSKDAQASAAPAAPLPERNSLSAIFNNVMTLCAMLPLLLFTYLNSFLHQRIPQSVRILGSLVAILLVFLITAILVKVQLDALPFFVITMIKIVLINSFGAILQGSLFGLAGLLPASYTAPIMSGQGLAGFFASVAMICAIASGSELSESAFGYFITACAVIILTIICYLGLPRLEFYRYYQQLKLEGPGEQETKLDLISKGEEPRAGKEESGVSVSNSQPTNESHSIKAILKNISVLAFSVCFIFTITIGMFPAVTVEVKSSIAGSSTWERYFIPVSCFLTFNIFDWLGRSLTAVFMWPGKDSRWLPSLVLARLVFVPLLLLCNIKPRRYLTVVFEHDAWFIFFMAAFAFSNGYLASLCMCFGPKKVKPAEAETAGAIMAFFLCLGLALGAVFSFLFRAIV

Another assay addresses T5, Adenosine receptor A1 (Homo sapiens, UniProt P30542).
T5 sequence (P30542 whole entry): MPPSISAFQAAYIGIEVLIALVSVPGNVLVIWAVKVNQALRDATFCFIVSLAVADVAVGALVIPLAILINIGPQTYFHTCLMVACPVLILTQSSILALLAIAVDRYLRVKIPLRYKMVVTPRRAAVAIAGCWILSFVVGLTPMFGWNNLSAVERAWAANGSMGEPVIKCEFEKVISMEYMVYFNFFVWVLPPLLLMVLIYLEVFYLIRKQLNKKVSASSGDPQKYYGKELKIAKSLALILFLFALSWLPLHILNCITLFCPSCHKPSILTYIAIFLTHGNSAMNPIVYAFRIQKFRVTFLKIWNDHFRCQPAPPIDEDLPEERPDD

Another assay deals with Melanocortin receptor 3 (Homo sapiens, UniProt P41968).
Also: assay procedure not described here.

Sequence of Motilin receptor (O43193 whole entry): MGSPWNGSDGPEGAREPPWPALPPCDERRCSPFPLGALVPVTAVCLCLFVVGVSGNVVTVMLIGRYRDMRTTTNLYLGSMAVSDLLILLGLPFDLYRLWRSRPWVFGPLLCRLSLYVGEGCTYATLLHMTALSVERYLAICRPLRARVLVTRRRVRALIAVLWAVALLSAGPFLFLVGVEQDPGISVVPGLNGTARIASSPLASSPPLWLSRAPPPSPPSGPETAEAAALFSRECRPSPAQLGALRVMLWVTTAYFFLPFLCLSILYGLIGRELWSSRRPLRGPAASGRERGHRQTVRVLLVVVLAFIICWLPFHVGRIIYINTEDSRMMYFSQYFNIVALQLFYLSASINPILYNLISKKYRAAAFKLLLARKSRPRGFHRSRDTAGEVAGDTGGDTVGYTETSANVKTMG
Sequence of Melanocortin receptor 3 (P41968 whole entry): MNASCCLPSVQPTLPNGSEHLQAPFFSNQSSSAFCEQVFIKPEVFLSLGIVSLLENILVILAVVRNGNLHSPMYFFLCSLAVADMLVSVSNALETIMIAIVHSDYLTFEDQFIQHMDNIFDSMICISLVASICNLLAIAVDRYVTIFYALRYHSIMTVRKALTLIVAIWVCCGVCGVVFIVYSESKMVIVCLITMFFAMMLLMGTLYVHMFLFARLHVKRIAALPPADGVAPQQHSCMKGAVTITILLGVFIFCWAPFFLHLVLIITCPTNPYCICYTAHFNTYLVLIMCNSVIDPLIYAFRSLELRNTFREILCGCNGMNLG
Sequence of Beta-2 adrenergic receptor (P07550 whole entry): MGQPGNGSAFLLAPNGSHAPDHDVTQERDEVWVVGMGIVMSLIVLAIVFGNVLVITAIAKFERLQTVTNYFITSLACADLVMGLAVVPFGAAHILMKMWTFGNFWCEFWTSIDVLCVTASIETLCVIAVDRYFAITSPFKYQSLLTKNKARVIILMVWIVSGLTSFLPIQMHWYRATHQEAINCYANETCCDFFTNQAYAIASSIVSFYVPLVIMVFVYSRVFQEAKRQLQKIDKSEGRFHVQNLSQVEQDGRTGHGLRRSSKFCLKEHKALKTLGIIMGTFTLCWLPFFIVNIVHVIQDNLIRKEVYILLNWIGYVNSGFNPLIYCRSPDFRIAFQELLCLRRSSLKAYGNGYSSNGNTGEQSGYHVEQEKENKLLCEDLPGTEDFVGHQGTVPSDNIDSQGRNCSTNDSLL
Sequence of Sodium-dependent dopamine transporter (Q01959 whole entry): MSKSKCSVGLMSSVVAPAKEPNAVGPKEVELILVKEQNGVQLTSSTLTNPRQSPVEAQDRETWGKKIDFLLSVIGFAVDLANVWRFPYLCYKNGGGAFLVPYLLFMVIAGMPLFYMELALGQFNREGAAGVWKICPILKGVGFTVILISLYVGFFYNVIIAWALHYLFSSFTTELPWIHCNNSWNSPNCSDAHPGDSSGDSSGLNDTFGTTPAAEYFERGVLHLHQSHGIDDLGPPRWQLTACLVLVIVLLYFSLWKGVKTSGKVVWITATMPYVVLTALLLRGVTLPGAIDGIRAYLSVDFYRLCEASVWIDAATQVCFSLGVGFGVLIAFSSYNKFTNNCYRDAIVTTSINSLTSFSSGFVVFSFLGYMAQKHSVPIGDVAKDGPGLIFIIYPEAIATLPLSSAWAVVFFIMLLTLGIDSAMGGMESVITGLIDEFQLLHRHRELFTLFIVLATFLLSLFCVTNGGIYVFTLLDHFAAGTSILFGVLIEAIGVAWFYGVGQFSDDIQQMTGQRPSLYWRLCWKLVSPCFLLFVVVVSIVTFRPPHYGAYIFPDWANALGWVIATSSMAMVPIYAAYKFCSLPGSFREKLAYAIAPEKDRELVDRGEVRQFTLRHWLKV
Sequence of 5-hydroxytryptamine receptor 2B (P41595 whole entry): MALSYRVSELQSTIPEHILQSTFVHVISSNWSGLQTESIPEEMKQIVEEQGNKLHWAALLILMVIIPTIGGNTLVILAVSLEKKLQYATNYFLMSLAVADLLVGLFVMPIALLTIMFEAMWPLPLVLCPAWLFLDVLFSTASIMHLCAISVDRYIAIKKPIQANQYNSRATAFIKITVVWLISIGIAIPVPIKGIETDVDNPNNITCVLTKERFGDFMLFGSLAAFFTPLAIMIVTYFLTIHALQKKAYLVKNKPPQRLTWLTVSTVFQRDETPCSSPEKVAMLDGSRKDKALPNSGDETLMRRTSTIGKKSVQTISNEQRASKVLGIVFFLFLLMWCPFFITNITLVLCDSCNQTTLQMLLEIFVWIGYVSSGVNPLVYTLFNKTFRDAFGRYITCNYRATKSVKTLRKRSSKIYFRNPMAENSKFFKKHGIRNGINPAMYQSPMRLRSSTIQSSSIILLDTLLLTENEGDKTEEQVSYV

Regarding `CCCN(CCC)C(=O)Cc1c(-c2ccc(Cl)cc2)nc2ccc(Cl)cn12` [ALPIDEM], the AC50 (in assay [1]; in [2]; in assay [3]; at Progesterone receptor; in assay [4]; in assay [5]) was greater than 30 µM throughout. In addition, the AC50 (at Motilin receptor; in assay [6]; in assay [7]; on Adenosine receptor A1; at Melanocortin receptor 3) was greater than 30 µM each time.
In the case of `COc1ccccc1Oc1c(NS(=O)(=O)c2ccc(C(C)(C)C)cc2)nc(-c2ncccn2)nc1OCCO` [BOSENTAN], the AC50 in assay [1] is greater than 10 µM; in assay [2] it was greater than 30 µM; in assay [3], greater than 10 µM; at Progesterone receptor, greater than 30 µM; in assay [4], greater than 10 µM; in [5] it was greater than 10 µM. Moreover, the AC50 was greater than 10 µM on Motilin receptor; greater than 10 µM in assay [6]; greater than 30 µM in [7]; greater than 30 µM on Adenosine receptor A1; greater than 30 µM on Melanocortin receptor 3.
In the case of `CC(C(=O)O)c1ccc2c(c1)[nH]c1ccc(Cl)cc12` (stereo not given) [CARPROFEN], the half-maximal activity concentration (AC50) was greater than 10 µM in assay [1]; greater than 30 µM in [2]; greater than 10 µM in assay [3]; greater than 30 µM at Progesterone receptor; greater than 10 µM in [4]; greater than 10 µM in assay [5]. Further, the concentration at half-maximal activity (AC50) was greater than 30 µM at Motilin receptor; greater than 10 µM in assay [6]; greater than 30 µM in [7]; greater than 30 µM at Adenosine receptor A1; greater than 30 µM at Melanocortin receptor 3.
Take `O=C1CCc2cc(OCCCCc3nnnn3C3CCCCC3)ccc2N1` [CILOSTAZOL]: the AC50 (in assay [1]; in [2]; in assay [3]; on Progesterone receptor; in assay [4]; in assay [5]) was greater than 30 µM throughout. Moreover, the AC50 at Motilin receptor was greater than 30 µM; in assay [6] it was greater than 30 µM; in assay [7], 30 µM; on Adenosine receptor A1 it was greater than 30 µM; at Melanocortin receptor 3, greater than 30 µM.
Turning to `C[C@@H](Oc1cc(-c2cnn(C3CCNCC3)c2)cnc1N)c1c(Cl)ccc(F)c1Cl` [CRIZOTINIB], the AC50 is greater than 10 µM in assay [1]; 7.8 µM in assay [2]; greater than 10 µM in [3]; greater than 30 µM on Progesterone receptor; greater than 10 µM in [4]; greater than 30 µM in assay [5]. The AC50 at Motilin receptor was 16 µM; in assay [6] it was greater than 10 µM; in [7] it was greater than 30 µM; at Adenosine receptor A1, greater than 30 µM; at Melanocortin receptor 3, 19.9 µM.
Take `O=C1CN(/N=C/c2ccc(-c3ccc([N+](=O)[O-])cc3)o2)C(O)=N1` [DANTROLENE]: the AC50 (in [1]; in assay [2]; in assay [3]; on Progesterone receptor; in [4]; in assay [5]) was greater than 10 µM each time. In addition, the AC50 was greater than 10 µM at Motilin receptor; greater than 10 µM in assay [6]; greater than 10 µM in assay [7]; 25 µM on Adenosine receptor A1; greater than 10 µM at Melanocortin receptor 3.
On to `CC(C)N(CCC(C(N)=O)(c1ccccc1)c1ccccn1)C(C)C` (stereo not given) [DISOPYRAMIDE], for which the AC50 is greater than 10 µM in assay [1]; greater than 30 µM in [2]; greater than 30 µM in assay [3]; greater than 30 µM at Progesterone receptor; greater than 10 µM in assay [4]; greater than 10 µM in [5]. The AC50 on Motilin receptor is greater than 30 µM; in [6], greater than 10 µM; in assay [7], greater than 30 µM; on Adenosine receptor A1, greater than 30 µM; at Melanocortin receptor 3 it was greater than 30 µM.
For the molecule `C[C@]12C=CC(=O)N[C@@H]1CC[C@@H]1[C@@H]2CC[C@]2(C)[C@@H](C(=O)Nc3cc(C(F)(F)F)ccc3C(F)(F)F)CC[C@@H]12` [DUTASTERIDE], the AC50 (in assay [1]; in [2]; in assay [3]; at Progesterone receptor; in [4]; in assay [5]) was greater than 10 µM in each case. For the same molecule, the AC50 (at Motilin receptor; in assay [6]; in assay [7]; at Adenosine receptor A1; at Melanocortin receptor 3) was greater than 10 µM throughout.
Consider `CN1C(C(=O)Nc2ccccn2)=C(O)c2ccccc2S1(=O)=O` [PIROXICAM], for which the AC50 (in assay [1]; in assay [2]; in assay [3]; on Progesterone receptor; in assay [4]; in assay [5]) was greater than 10 µM in each case. Moreover, the AC50 (at Motilin receptor; in assay [6]; in assay [7]; on Adenosine receptor A1; on Melanocortin receptor 3) was greater than 10 µM each time.
As to `CO[C@H]1/C=C/O[C@@]2(C)Oc3c(C)c(O)c4c(O)c(c(/C=N/N5CCN(C)CC5)c(O)c4c3C2=O)NC(=O)/C(C)=C\C=C\[C@H](C)[C@H](O)[C@@H](C)[C@@H](O)[C@@H](C)[C@H](OC(C)=O)[C@@H]1C` [RIFAMPIN], the AC50 in assay [1] was greater than 30 µM; in assay [2], 20 µM; in [3], 29 µM; at Progesterone receptor it was greater than 30 µM; in assay [4], greater than 30 µM; in assay [5], greater than 30 µM. Further, the AC50 at Motilin receptor is greater than 30 µM; in [6] it was greater than 10 µM; in assay [7], 12.4 µM; on Adenosine receptor A1, 18.8 µM; on Melanocortin receptor 3, greater than 30 µM.
